{
  "source": "patent US20260070944A1",
  "about": "“PEPTIDE PROMOTING TYROSINASE ACTIVITY AND USE THEREOF” (HYSENSBIO CO., LTD, priority 2022, published 2026)",
  "tested_on": "B16F10 cells",
  "experiment": "MTT assay, cell viability",
  "format": "cell-based",
  "experimental": "A melanocyte (B16F10) cell line was cultured using DMEM containing 10% FBS and 1% penicillin/streptomycin (PS) at 37° C. in a 5% CO2 incubator.\nAn MTT reagent was used by being diluted in DMEM at a concentration of 0.5 mg/mL.\nB16F10 cells were seeded at 230,000 cells/well in a 6-well plate, and cultured at 37° C. in a 5% CO2 incubator for 24 hours. Subsequently, the cells were treated with peptide KH001 (SEQ ID NO: 96) at different concentrations for 72 hours to prepare the cells, and then the MTT reagent was added and allowed to react in a 37° C. incubator for 1 hour under light blocking conditions. After removing the entire medium, the generated formazan was dissolved in DMSO, and then absorbance was measured at 560 nm.\nB16F10 cells were treated with the KH001 peptide at different concentrations. After 72 hours after KH001 peptide treatment, cell viability was measured using an MTT assay.",
  "note": "Where no end group is shown, it is not given here.",
  "data": [
    {"sequence": "KYKQKRRSYK [KH001, KYKQKRRSYK]", "values": [
      {"measurement": "cell viability compared to the control", "setting": "50 μM, 100 μM and 200 μM, 72 hours, MTT", "result": "no significant difference"},
      {"measurement": "toxicity", "setting": "at the predetermined concentrations (50, 100, 200 μM)", "result": "no toxicity"}
    ]}
  ]
}
